Measured values from patent US20100126680A1, “Method For Controlling Enzymatic Decomposition Of Peroxide and Products Thereof” (BUCKMAN LABORATORIES INTERNATIONAL, INC., priority 2008, published 2010).

What was measured:
Format in all cases: biochemical
[1] = test system: commercial catalase TERMINOX® Ultra 50L; test: Filter paper float test of catalase de-activation using papermaking white water; conditions: 500 ppm inhibitor
Protocol: (§1) A filter paper float test was carried out to study catalase deactivation performance of aldehyde-functional polymers and a conventional catalase inhibitor on bleached paper. In a typical float test, a one-inch square piece of filter paper was saturated with 50% H2O2 solution. With excess H2O2 solution being removed, the treated filter paper was submerged in 200 mL aqueous catalase solution or 200 mL de-inking white water. The catalase solution was prepared by diluting a commercial catalase solution with either distilled water or papermaking white water. Various amounts of the catalase inhibitors being studied were mixed with the catalase solution or de-inking white water for five minutes before the treated filter paper was submerged in the catalase solution or de-inking white paper. Controls also were carried out in which no catalase inhibitor was added to the catalase solution or de-inking paper before the treated filter was submerged therein. The time that was required for the filter paper to rise to the solution surface was recorded and used to determine H2O2 decomposition rate. A longer time for the filter paper to rise to the surface indicated a slower H2O2 decomposition rate.
To test the effect of dissolved and colloidal substances on catalase inhibitors, float tests were also carried out with the white water obtained from a newsprint papermaking mill. […]

[2] = test system: wild catalase in de-inking white water; test: Filter paper float test of catalase de-activation using de-inking white water
Protocol: as §1
As an initial observation made with respect to the controls that contained no catalase inhibitor, a significant difference was observed between the papermaking and de-inking sources of white water with respect to wild catalase content. […] The presence of wild catalase in the de-inking white water was confirmed by the float tests. It only took about 40 seconds for the peroxide-treated filter paper to rise to the surface of the de-inking white water that had not been treated with catalase inhibitor (e.g., see Control A, Table 4 below).
Float tests were also carried out with the de-inking white water obtained from a papermaking mill. Various amounts of the catalase inhibitors being studied for this example were mixed with the de-inking white water for five minutes before the treated filter paper was submerged in the de-inking white water. […]

[3] = test system: commercial catalase TERMINOX® Ultra 50L; test: Filter paper float test of catalase de-activation using distilled water; conditions: for Float time: 20 μL catalase/1000 mL distilled water, no-inhibitor float time 75 sec
Protocol: as §1
Catalase de-activation performance of a glyoxalated polyacrylamide (G-PAM) and glutaraldehyde was tested with the filter paper float test using distilled water. As indicated, in a typical test, a square piece of filter was first saturated with 50% H2O2 solution. Various amounts of the two types of catalase inhibitors being studied in this example were mixed with the catalase solution prepared with distilled water for five minutes before the treated filter paper was submerged in the catalase solution. Once the treated filter paper was submerged in catalase solution, catalase started decomposing H2O2 molecules, releasing O2 gas. The faster the H2O2 decomposition rate, the faster the O2 gas being generated, and the shorter the time required for the filter paper to rise to the solution surface. On the other hand, the presence of catalase inhibition will slow down the H2O2 decomposition rate, resulting in longer periods of time for the filter paper to rise to the surface.
Table 1 presents the results of the float tests conducted with 20 μL commercial catalase TERMINOX® Ultra 50L diluted by 1000 mL distilled water to prepare the catalase solution. As indicated, glutaraldehyde and glyoxalated polyacrylamide were studied as the catalytic inhibitors. Glutaraldehyde was chosen as a control for this example. Large quantities of glutaraldehyde are commercially used as a catalase inhibitor. BUBOND® 387 was the source of the glyoxalated polyacrylamide.

O=CCCCC=O [Glutaraldehyde]
Float time ([1]; 10 μL catalase/1000 mL papermaking white water, no-inhibitor float time 197 sec): 301 s
Float time ([1]; 20 μL catalase/1000 mL papermaking white water, no-inhibitor float time 67 sec): 130 s
Float time ([2]; Dosage 2000 ppm, de-inking white water pre-treated with 1000 ppm BUSAN® 1078 bactericide for 30 minutes, no-inhibitor Control B 35 sec): 40 s
Float time ([2]; Dosage 2000 ppm, de-inking white water, no-inhibitor Control A 39 sec): 68 s
Float time ([2]; Dosage 4000 ppm, de-inking white water pre-treated with 1000 ppm BUSAN® 1078 bactericide for 30 minutes, no-inhibitor Control B 35 sec): 37 s
Float time ([3]; 50 ppm inhibitor): 80 s
Float time ([3]; 100 ppm inhibitor): 72 s
Float time ([3]; 150 ppm inhibitor): 88 s
Float time ([3]; 200 ppm inhibitor): 103 s
Float time ([3]; 300 ppm inhibitor): 117 s
Float time ([3]; 500 ppm inhibitor): 128 s
filter paper float time ([3]; below 100 ppm inhibitor, distilled water catalase solution): around 75 seconds
